Experimental data reported in patent EP0388245A1, “Agent resistant to AIDS virus” (TERUMO KABUSHIKI KAISHA, priority 1989, dated 1990).

Assays:
[1] = system: HTLV-IIIb (one kind of HIV); assay: Test for activity to inhibit hyperplasia of HIV: suppression of cytopathic effect (CPE), live cells counted by trypan blue; assay type: cell-based, human immunodeficiency virus (HIV); conditions: for MT-4/HIV (live cells): HTLV-IIIb infected MT-4 cells, MOI 0.02, 4 days
Description: (§1) A test for the activity to inhibit hyperplasia of HIV was conducted in accordance with the method proposed by Harada et al [Science, 229, 563-5663 (1985)]. Testing conditions: Cell: […] (HTLV-I-carrying cell line) Virus: THLV-IIIb (one kind of HIV); HTLV-IIIb was prepared from the supernatant of the culture broth of MOLT-4/HIV, a HIV-producing cell. The potency of the virus was 1 x 10⁶ TCID 50/ml. Culture medium: RPMI-1640 (containing 10% bovine fetal serum, 100 IV/penicilin, and 100 µg/ml streptomycin) Culture conditions: In each of the wells of a 24-well culture tray, […] cells (6.6 x 10⁵/ml, 0.3 ml) and HTLV-II Ib ([…], 0.2 ml) were placed [multiplicity of infection (MOI = 0.02)] and cultured for 1 hour. After adsorption of virus, Compound A diluted with culture medium (0.5 ml) was added to a total volume of 1.0 ml and cultured at 37°C for 4 days. Cells not infected by HTLV-IIIb dilution aqueous solution and cells not treated with Compound A were used as controls.
(§2) Virally infected cells and uninfected cells were cultured for 4 days. After the culture, the live cells were counted by the trypan blue tinting method. The property of cytopathic effect suppression was evaluated by comparison of the number of live cells in the culture broths of virally infected cells and uninfected cells both obtained in the absence of Compound A.

MT-4 = assay: Toxicity to uninfected MT-4 cells, live cell count by trypan blue after 4 days culture; assay type: cell-based; conditions: for MT-4 (live cells) / Toxicity (% control): uninfected MT-4 cells; for MT-4 (live cells): 4 days
Description: as §1, §2

[2] = system: Reverse transcriptase originating in avain myeloblastic virum; assay: Test for activity to inhibit reverse transcriptase ([³H] thymidine triphosphate incorporation); assay type: biochemical; design: Radio activity #1 / Radio activity #2: unit not given here; conditions: for % control: inhibition of reverse transcriptase
Description: This test was carried out by the method described below.
This test solution was prepared by dissolving Compound A in a concentration of 5 mg/ml in dimethyl sulfoxide and diluting the resultant solution with distilled water.
Fifty (50) µl of the measuring solution and 50 µl of the test solution were mixed and left reacting at 37°C for one hour. The reaction mixture was cooled with ice to stop the reaction. Then 50 µl of […] by a disk of DEAE cellulose paper 2.4 cm in diameter. The wet paper was washed three times with an aqueous 5% […] (with 12 molecules of crystal water) and once each with distilled water and ethanol. The radioactivity was determined with a liquid scintillation counter.

K₇PW₁₀Ti₂O₄₀·6H₂O [Compound A] was tested, and the “activity to control CPE” value ([1]; 25 to 100 ug/ml, MT-4/HIV) was “excelled in activity to control CPE”, the “MT-4/HIV (live cells)” value ([1]; Compound A 25 µg/ml) was 10.0 x 10⁵ cells/ml and the “MT-4/HIV (live cells)” value ([1]; Compound A 50 µg/ml) was 9.8 x 10⁵ cells/ml. For the same substance, the “MT-4/HIV (live cells)” value ([1]; Compound A 100 µg/ml) was 8.5 x 10⁵ cells/ml, the “MT-4/HIV (live cells)” value ([1]; Compound A 200 µg/ml) was 4.8 x 10⁵ cells/ml and the “MT-4/HIV (live cells)” value ([1]; Compound A 400 µg/ml) was 4.7 x 10⁵ cells/ml. For the same substance, the “% CPE Control” value ([1]; MT-4/HIV, Compound A 25 µg/ml) was 90%, the “% CPE Control” value ([1]; MT-4/HIV, Compound A 50 µg/ml) was 88% and the “% CPE Control” value ([1]; MT-4/HIV, Compound A 100 µg/ml) was 71%. The “% CPE Control” value ([1]; MT-4/HIV, Compound A 200 µg/ml) was 25%, the “% CPE Control” value ([1]; MT-4/HIV, Compound A 400 µg/ml) was 47% and the toxicity (MT-4; 25 to 100 ug/ml, MT-4) was “only inconspicuous toxicity”. For the same substance, the “MT-4 (live cells)” value (MT-4; Compound A 25 µg/ml) was 11.8 x 10⁵ cells/ml, the “MT-4 (live cells)” value (MT-4; Compound A 50 µg/ml) was 9.8 x 10⁵ cells/ml and the “MT-4 (live cells)” value (MT-4; Compound A 100 µg/ml) was 10.1 x 10⁵ cells/ml. For the same substance, the “MT-4 (live cells)” value (MT-4; Compound A 200 µg/ml) was 8.5 x 10⁵ cells/ml, the “MT-4 (live cells)” value (MT-4; Compound A 400 µg/ml) was 6.0 x 10⁵ cells/ml and the “Toxicity (% control)” value (MT-4; Compound A 25 µg/ml) was 0 % control. The “Toxicity (% control)” value (MT-4; Compound A 50 µg/ml) was 1 % control, the “Toxicity (% control)” value (MT-4; Compound A 100 µg/ml) was 0 % control and the “Toxicity (% control)” value (MT-4; Compound A 200 µg/ml) was 21 % control. For the same substance, the “Toxicity (% control)” value (MT-4; Compound A 400 µg/ml) was 44 % control, the “Average value (CPM)” value ([2]; Concentration 12,500 µg/ml) was 3906.0 CPM and the “Radio activity #1” value ([2]; Concentration 12,500 µg/ml) was 3666. For the same substance, the “Radio activity #2” value ([2]; Concentration 12,500 µg/ml) was 4146, the “% control” value ([2]; Concentration 12,500 µg/ml) was 50.8% and the “Average value (CPM)” value ([2]; Concentration 25,000 µg/ml) was 3878.0 CPM. The “Radio activity #1” value ([2]; Concentration 25,000 µg/ml) was 3143, the “Radio activity #2” value ([2]; Concentration 25,000 µg/ml) was 4613 and the “% control” value ([2]; Concentration 25,000 µg/ml) was 51.2%. The “Average value (CPM)” value ([2]; Concentration 50,000 µg/ml) was 2450.5 CPM, the “Radio activity #1” value ([2]; Concentration 50,000 µg/ml) was 1828 and the “Radio activity #2” value ([2]; Concentration 50,000 µg/ml) was 3079. For the same substance, the “% control” value ([2]; Concentration 50,000 µg/ml) was 71.1%, the “Average value (CPM)” value ([2]; Concentration 100,000 µg/ml) was 1391.0 CPM and the “Radio activity #1” value ([2]; Concentration 100,000 µg/ml) was 1231. The “Radio activity #2” value ([2]; Concentration 100,000 µg/ml) was 1391, the “% control” value ([2]; Concentration 100,000 µg/ml) was 86.0% and the “Average value (CPM)” value ([2]; Concentration 200,000 µg/ml) was 967.0 CPM. The “Radio activity #1” value ([2]; Concentration 200,000 µg/ml) was 970, the “Radio activity #2” value ([2]; Concentration 200,000 µg/ml) was 930 and the “% control” value ([2]; Concentration 200,000 µg/ml) was 92.0%. The “activity to inhibit reverse transcriptase” value ([2]; summary in words of Table 2) was “manifested an activity to inhibit reverse transcriptase even in a small application rate”.
